Test results: publication PMC12436592 (Nature Communications, 2025)
Values joined by “and” are separate entries in the source; they are usually repeats but may differ in a detail not shown here. Equal values may be shown once. “Also recorded” adds a separate entry of the source.

Key:
hP2X4R = tested on: T1, hP2X4R; assay: TEVC current traces with co-applied antagonist in Xenopus oocytes; type: cell-based, human; settings: 300 µM ATP, 100 nM antagonist
T1 construct: expressed in transfected cells; host or cells: Xenopus laevis oocytes (cRNA, pNKS2 vector)

hP2X1R = target: T2, hP2X1R (Homo sapiens, UniProt P51575); assay: Calcium influx assay, 1321N1 astrocytoma cells, ATP EC80; type: cell-based; settings: 1321-N1, read-out: % inhibition ± SD at 10 μM, hP2X1R, 10 μM antagonist, ATP 100 nM
T2 sequence (P51575 51-338 limits assumed): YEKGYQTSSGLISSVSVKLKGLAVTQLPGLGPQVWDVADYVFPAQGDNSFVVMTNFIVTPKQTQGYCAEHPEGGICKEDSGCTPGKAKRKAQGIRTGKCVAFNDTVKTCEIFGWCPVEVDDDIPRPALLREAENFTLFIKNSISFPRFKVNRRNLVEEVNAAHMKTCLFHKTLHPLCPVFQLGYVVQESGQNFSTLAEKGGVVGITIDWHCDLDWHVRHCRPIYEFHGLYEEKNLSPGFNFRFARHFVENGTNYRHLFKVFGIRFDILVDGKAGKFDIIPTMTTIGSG
Source text: . For 1321N1 astrocytoma cells stably expressing the human, rat, or mouse P2X7Rs, or hP2X2Rs or hP2X4Rs, the fluorescent Ca^2+-chelating dye Fluo-4 acetoxymethyl ester (Fluo-4 AM, Thermo Fisher Scientific, Dreieich, Germany) was used. For 1321N1 astrocytoma cell lines recombinantly expressing the hP2X1Rs or hP2X3Rs, the FLIPR® Calcium 5 Assay Kit (Molecular Devices, San José, CA, USA) was employed. Human, rat, and mouse P2X7Rs as well as hP2X1Rs, hP2X2Rs, hP2X3Rs, and hP2X4Rs were recombinantly expressed in 1321N1 astrocytoma cells using a retroviral expression system[72]–[74].
On the first day, 45,000 cells per well (30,000 cells for the human P2X3 receptor-expressing cells) were seeded into a 96-well polystyrene microplate with a black, flat bottom in a final volume of 200 µL. […] After 30 min of incubation with antagonist, the plates were measured using a fluorescence imaging plate reader NOVOstar (BMG Labtech GmbH, Offenburg, Germany) at an excitation wavelength of 485 nm and an emission wavelength of 520 nm, for 30 s at 0.4 s intervals. Calcium influx measurements were then initiated by automatic addition of 20 µL of agonist solution by the plate reader’s pipetting device. Data were analyzed using Microsoft Excel and GraphPad Prism (Version 8.0, San Diego, CA, USA). EC80 and IC50 values were calculated using nonlinear regression with a sigmoidal dose-response equation.

hP2X3R = target: T3, hP2X3R (Homo sapiens, UniProt P56373, S15V); assay: as above; type: cell-based
T3 construct: expressed in transfected cells; host or cells: 1321N1 astrocytoma cells, retroviral expression system
T3 sequence (P56373 1-397 S15V): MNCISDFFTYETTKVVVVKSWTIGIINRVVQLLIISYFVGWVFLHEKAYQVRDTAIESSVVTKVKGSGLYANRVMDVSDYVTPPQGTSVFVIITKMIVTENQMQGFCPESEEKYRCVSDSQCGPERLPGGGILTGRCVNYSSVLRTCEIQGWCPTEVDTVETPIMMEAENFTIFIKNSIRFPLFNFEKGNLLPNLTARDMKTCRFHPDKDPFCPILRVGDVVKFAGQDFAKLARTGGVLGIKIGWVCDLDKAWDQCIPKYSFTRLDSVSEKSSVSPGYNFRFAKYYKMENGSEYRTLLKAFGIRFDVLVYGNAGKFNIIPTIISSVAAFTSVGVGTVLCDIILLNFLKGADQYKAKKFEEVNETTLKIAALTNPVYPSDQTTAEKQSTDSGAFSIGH
Source text: For 1321N1 astrocytoma cells stably expressing the human, rat, or mouse P2X7Rs, or hP2X2Rs or hP2X4Rs, the fluorescent Ca^2+-chelating dye Fluo-4 acetoxymethyl ester (Fluo-4 AM, Thermo Fisher Scientific, Dreieich, Germany) was used. For 1321N1 astrocytoma cell lines recombinantly expressing the hP2X1Rs or hP2X3Rs, the FLIPR® Calcium 5 Assay Kit (Molecular Devices, San José, CA, USA) was employed. Human, rat, and mouse P2X7Rs as well as hP2X1Rs, hP2X2Rs, hP2X3Rs, and hP2X4Rs were recombinantly expressed in 1321N1 astrocytoma cells using a retroviral expression system[72]–[74].
On the first day, 45,000 cells per well (30,000 cells for the human P2X3 receptor-expressing cells) were seeded into a 96-well polystyrene microplate with a black, flat bottom in a final volume of 200 µL. After overnight incubation at 37 °C and 10% CO2 (5% CO2 for the human P2X3R-expressing cell line), the medium was removed by inverting the plate, and the cells were loaded with dye solution. Hanks’ balanced salt solution (HBSS, Thermo Fisher Scientific, Dreieich, Germany) was used as the assay buffer for human P2X1R, P2X2R, P2X3R, and P2X4R. For the P2X7Rs, a different assay buffer was used: 150 mM sodium-glutamate, 5 mM KCl, 0.5 mM CaCl2, 0.1 mM MgCl2, 10 mM D-glucose, 25 mM 4-(2-hydroxyethyl)-1-piperazineethanesulfonic acid (HEPES), pH 7.4. The dye solutions were freshly prepared. The Fluo-4 AM solution contained 3 µM of Fluo-4 AM in assay buffer and 1% of the non-ionic detergent Pluronic F-127® (Sigma-Aldrich, Taufkirchen, Germany). The Calcium 5 dye, used for hP2X1Rs and hP2X3Rs, was prepared in HBSS buffer. Cells were loaded with Fluo-4 AM and incubated for 1 h at room temperature with gentle shaking (100 rpm), while those loaded with the Calcium 5 dye were incubated for 1 h at 37 °C. After incubation, the dye solution was carefully removed from the plate, and buffer was added to the cells for the evaluation of agonists. […] The agonist solution was prepared in a 96-well transparent plate, obtaining the respective EC80 values. As a control, assay buffer without the test compound was used. After 30 min of incubation with antagonist, the plates were measured using a fluorescence imaging plate reader NOVOstar (BMG Labtech GmbH, Offenburg, Germany) at an excitation wavelength of 485 nm and an emission wavelength of 520 nm, for 30 s at 0.4 s intervals. Calcium influx measurements were then initiated by automatic addition of 20 µL of agonist solution by the plate reader’s pipetting device. Data were analyzed using Microsoft Excel and GraphPad Prism (Version 8.0, San Diego, CA, USA). EC80 and IC50 values were calculated using nonlinear regression with a sigmoidal dose-response equation.

inhibition at 10 µM (hP2X1R) [%]	inhibition at 10 µM (hP2X3R; 1321-N1, read-out: % inhibition ± SD at 10 μM, hP2X3R, 10 μM antagonist, ATP 100 nM) [%]	fold more potent at the hP2X7R versus the hP2X3R (hP2X3R; calcium influx IC50 ratio) [fold]	IC50 (hP2X3R; calcium influx, estimated) [nM]	SMILES	antagonism of the hP2X4R (hP2X4R)	hP2X3R inhibition at 10 μM (hP2X3R; Log(c) M -5, single values, 10 µM, in % (unit assumed))	hP2X3R inhibition, IC50 curve (hP2X3R; Log(c) M -6, in %)
–	–	–	–	CC12CC3CC1(C)C1(C)CC3(C(=O)NNc3ccccc3Cl)CC21C [UB-MBX-46]	virtually no antagonism; also recorded: negligible	–	–
36 ± 8	86 ± 9	40	707 ± 185	O=C(NNc1ccccc1Cl)C12CC3CC(CC(C3)C1)C2 [UB-ALT-P30, reference compound]	–	94.9053 and 93.1871 and 60.8032 and 85.3564 and 91.979 and 90.698 and 90.7697 and 79.3438	58.8384 and 67.0023 and 59.1901 and 77.3652
